Assay results from patent US8435987B2, “Pyrazolo-pyridinone and pyrazolo-pyrazinone compounds as P38 modulators and methods of use thereof” (Amgen Inc., priority 2007, dated 2013).

System: production of IL-1β, IL-6, and TNF-α by PBMC activated with bacterial lipopolysaccharide (LPS)
Experiment: Lipopolysaccharide-activated PBMC cytokine production assay
Type: cell-based
Details: LPS 100 ng/mL, 18 hours
Method: Lipopolysaccharide-Activated PBMC Cytokine Production Assay
Test compounds were evaluated in vitro for the ability to inhibit the production of IL-1β, IL-6, and TNF-α by PBMC activated with bacterial lipopolysaccharide (LPS). Fresh leukocytes were obtained from a local blood bank, and peripheral blood mononuclear cells (PBMCs) were isolated by density gradient centrifugation on Ficol-Paque Plus (Pharmacia).
Preparation of Test Compound Stock Solutions
All reagents were prepared in RPMI 1640+10% v/v human AB serum+1×Pens/Strep/Glu (assay medium). Test compounds were dissolved in 100% DMSO and serially diluted in 96-well polypropylene round bottom micro titer plates (drug plate). Serial dilutions were then diluted 1:250 into assay medium to a 4× working concentration. […]
LPS was prepared to a 4× concentration in assay medium. […] After 18 hours culture supernatants were removed and IL-1β, IL-6, and TNF-α presence in the supernatants was quantified using MSD ECL based technology.
20 μL of culture supernatant were added to MSD plates, and incubated for one hour at room temperature. 20 μL of detection antibody diluted in antibody diluent (1 μg/mL), and 110 μL of 2× Read Buffer P was added, and incubated for one hour at RT. Electrochemiluminescence was measured using the SECTOR HTS Imager (MSD, Gaithersburg, Md.). […]

| SMILES | IC50 [nM] |
| --- | --- |
| CNc1noc2c(-c3cc4cnn(-c5c(F)cccc5F)c4n(C)c3=O)c(C)ccc12 [Example 5, 1-(2,6-difluorophenyl)-7-methyl-5-(6-methyl-3-(methylamino)-1,2-benzisoxazol-7-yl)-1,7-dihydro-6H-pyrazolo[3,4-b]pyridin-6-one] | ≤ 100 |
| Cc1ccc2c(NC3CC3)noc2c1-c1cc2cnn(-c3c(F)cccc3F)c2n(C)c1=O [Example 1, 5-(3-(cyclopropylamino)-6-methylbenzo[d]isoxazol-7-yl)-1-(2,6-difluorophenyl)-7-methyl-1H-pyrazolo[3,4-b]pyridin-6(7H)-one] | ≤ 100 |
